Experimental findings from US20260034111A1, “NOVEL HETEROCYCLES AS sPLA2-X INHIBITORS” (Cayman Chemical Company Incorporated, priority 2022, published 2026) are described below.

Common to all, as to assay type: biochemical
Experiment [1] addresses T1, recombinant human sPLA2-V enzyme (Homo sapiens, UniProt P39877).
T1 construct: made in house; host or cells: E. coli
T1 sequence (P39877 21-138): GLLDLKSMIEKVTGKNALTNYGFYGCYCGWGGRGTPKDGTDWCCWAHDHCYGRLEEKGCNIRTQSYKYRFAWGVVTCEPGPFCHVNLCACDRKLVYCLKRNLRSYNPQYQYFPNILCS
The experiment in a line: sPLA2-V enzyme inhibition assay (thio-PC substrate, DTNB detection, absorbance 410 nm). The note with it: class symbols; read-out: sPLA2 Type V Inhibition (IC50; nM). From the text: (§1) Screening Compounds for Inhibition of sPLA2-X, sPLA2-V, and sPLA2-IIA Enzyme Activity
(§2) These sPLA2 enzymes hydrolyze the sn-2 acyl chains of glycerophospholipids, resulting in the release of a free fatty acid and a lysophospholipid. In the case of the thio-PC substrate, this enzymatic hydrolysis results in a free sulfhydryl group remaining on the lysophospholipid. This free sulfhydryl reacts with DTNB to produce the chromogenic product 5-nitro-2-thiobenzoic acid (TNB) which can be quantitated by absorbance at 410 nm. The amount of TNB produced reflects the hydrolytic activity of the enzyme.
(§3) The recombinant human sPLA2 groups IIA, V, and X enzymes were expressed in E. coli and purified to >90% purity by standard biochemical methods.
(§4) Procedure of Enzyme Inhibition for sPLA2-X • 1. […] Dilute the test compounds in 100% DMSO by half-log steps in a 96-well dilution plate using columns 1-11 (one compound per row). Column 12 contains DMSO alone with no compound. • 3. Prepare a 3.5 mM thio-PC substrate solution by drying down 7.2 mg of stock thio-PC in ethanol under a gentle stream of N2 gas. When dry, add 4 mL assay buffer (25 mM Tris, pH7.4; 100 mM KCl; 10 mM CaCl2; 0.1% Triton X-100) and warm in a 37° C. water bath for 20 minutes with intermittent vortexing. • 4. Prepare an “enzyme containing” reaction mix with the following components: 20.4 mL assay buffer; 2 mL DTNB (20 mM in 800 mM Tris, pH8.0); and 11.8 mg recombinant human sPLA2-X enzyme (>95% pure) diluted to a total of 0.8 mL assay buffer. • 5. Prepare a “no enzyme” reaction mix with the following components: 477 μL assay buffer and 45 μL DTNB. • 6. Dispense 58 μL “no enzyme” reaction mix into each of 8 wells (columns 23 and 24, rows M-P). • 7. Dispense 58 μL “enzyme containing” reaction mix into all remaining wells on the plate. • 8. From the 96-well compound dilution plate, add 2 μL from each well for each compound to each of 4 wells with “enzyme containing” reaction mix. Columns 23 and 24 on the assay plate will contain only DMSO (vehicle control). […] After compound addition, mix the contents of each well to ensure that the DMSO is evenly distributed in the well. • 9. Cover the plate and incubate in the dark at room temperature for 15 minutes. • 10. Add 10 μL of thio-PC substrate to all wells. The final concentration of thio-PC in the reactions is 0.5 mM. • 11. Cover the plate and incubate in the dark at room temperature for 30 minutes. • 12. Measure the absorbance of all wells at 410 nm. • 13. Determine the mean absorbance of the “no enzyme” wells. Subtract this value from the absorbance values determined for all other wells (these are now background corrected data). • 14. […] Procedure of Enzyme Inhibition for sPLA2-V • 1. […] Dilute the test compounds in 100% DMSO by half-log steps in a 96-well dilution plate using columns 1-11. Column 12 contains DMSO alone with no compound. • 3. Prepare a 3.5 mM thio-PC substrate solution by drying down 7.2 mg of stock thio-PC in ethanol under a gentle stream of N2 gas. When dry, add 4 mL assay buffer (25 mM Tris, pH7.4; 100 mM KCl; 10 mM CaCl2; 0.1% Triton X-100) and warm in a 37° C. water bath for 20 minutes with intermittent vortexing. • 4. Prepare an “enzyme containing” reaction mix with the following components: 20.4 mL assay buffer; 2 mL DTNB (20 mM in 800 mM Tris, pH8.0); and 12 mg recombinant human sPLA2-V enzyme (>95% pure) diluted to a total of 0.8 mL assay buffer. • 5. Prepare a “no enzyme” reaction mix with the following components: 477 μL assay buffer and […]. • 6. Dispense 58 μL “no enzyme” reaction mix into each of 8 wells (columns 23 and 24, rows M-P). • 7. Dispense 58 μL “enzyme containing” reaction mix into all remaining wells on the plate. • 8. From the 96-well compound dilution plate, add 2 μL from each well for each compound to each of 4 wells with “enzyme containing” reaction mix. Columns 23 and 24 on the assay plate will contain only DMSO (vehicle control).

In experiment [2] the target is T2, recombinant human sPLA2-IIA enzyme (Homo sapiens, UniProt P14555).
T2 construct: made in house; host or cells: E. coli
T2 sequence (P14555 21-144): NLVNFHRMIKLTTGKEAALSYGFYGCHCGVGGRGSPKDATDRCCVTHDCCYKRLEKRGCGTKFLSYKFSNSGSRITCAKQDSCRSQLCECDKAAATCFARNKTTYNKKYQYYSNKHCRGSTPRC
The experiment in a line: sPLA2-IIA enzyme inhibition assay (thio-PC substrate, DTNB detection, absorbance 410 nm). The note with it: class symbols; read-out: sPLA2 Type IIa Inhibition (IC50; nM).
From the text: as §1, §2, §3, §4

The target in a further experiment is T3, sPLA2-X protein (Homo sapiens, UniProt O15496).
T3 sequence (O15496 43-165): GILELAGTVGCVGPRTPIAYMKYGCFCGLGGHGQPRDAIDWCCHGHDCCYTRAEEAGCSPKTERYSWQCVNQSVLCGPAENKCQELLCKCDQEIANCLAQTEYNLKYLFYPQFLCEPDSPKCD
Kind of experiment: sPLA2-X enzyme inhibition assay (thio-PC substrate, DTNB detection, absorbance 410 nm). Also on record: made in house; host or cells: E. coli. The note with it: class symbols; read-out: sPLA2 Type X Inhibition (IC50; nM).
From the text: as §1, §2, §3, §4

Where a name gives a salt, the structure may show the parent alone.

Consider `CS(=O)(=O)OCC(F)(F)c1cccc(-n2c(C(N)=O)cc3ccc(OC(F)(F)F)cc32)c1` [Compound 47, 2-(3-(2-carbamoyl-6-(trifluoromethoxy)-1H-indol-1-yl)phenyl)-2,2-difluoroethyl methanesulfonate], for which the values for the half-maximal inhibitory concentration (IC50) (in experiment [1]; in experiment [2]; on sPLA2-X protein) were above 5000 nM, above 1000 nM and above 200 nM, respectively.

`CC(C)(Cc1cccc(-n2c(C(N)=O)cc3ccc(OC(F)(F)F)cc32)c1)C(=O)O` [Compound 3, 3-(3-(2-carbamoyl-6-(trifluoromethoxy)-1H-indol-1-yl)phenyl)-2,2-dimethylpropanoic acid]: the results for the IC50 (in experiment [1]; in experiment [2]; on sPLA2-X protein) were 1500 to 5000 nM, 500 to 1000 nM and below 20 nM, respectively.

With `NC(=O)c1cc2ccc(OC(F)(F)F)cc2n1-c1cccc(N2CC[C@H]2C(=O)O)n1` [Compound 69, (S)-1-(6-(2-carbamoyl-6-(trifluoromethoxy)-1H-indol-1-yl)pyridin-2-yl)azetidine-2-carboxylic acid], the IC50 (usually the concentration that inhibits the measured activity by half) is above 5000 nM in experiment [1], above 1000 nM in experiment [2] and above 200 nM at sPLA2-X protein.

For `NC(=O)c1cc2ccc(OC(F)(F)F)cc2n1-c1cccc(C2CC2C(=O)O)n1` (single isomer, unassigned) [Compound 28e, cis-(+)-2-(6-(2-carbamoyl-6-(trifluoromethoxy)-1H-indol-1-yl)pyridin-2-yl)cyclopropane-1-carboxylic acid], the IC50 was above 5000 nM in experiment [1], below 200 nM in experiment [2] and below 20 nM at sPLA2-X protein.

In the case of `NC(=O)c1cc2ccc(OC(F)(F)F)cc2n1-c1cccc(C2CC2C(=O)O)n1` (single isomer, unassigned) [Compound 28d, cis-(−)-2-(6-(2-carbamoyl-6-(trifluoromethoxy)-1H-indol-1-yl)pyridin-2-yl)cyclopropane-1-carboxylic acid], the IC50 in experiment [1] is 1500 to 5000 nM; in experiment [2], above 1000 nM; on sPLA2-X protein, 50 to 200 nM.

In the case of `NC(=O)c1cc2ccc(OC(F)(F)F)cc2n1-c1cccc(C2(N)CCC2)n1` [Compound 49, 1-(6-(1-aminocyclobutyl)pyridin-2-yl)-6-(trifluoromethoxy)-1H-indole-2-carboxamide TFA salt], the half-inhibitory concentration (IC50) was above 5000 nM in experiment [1], above 1000 nM in experiment [2] and above 200 nM at sPLA2-X protein.

With `CS(=O)(=O)NCc1cccc(-n2c(C(N)=O)cc3ccc(OC(F)(F)F)cc32)n1` [Compound 33], the figures for the half-maximal inhibitory concentration (IC50) (in experiment [1]; in experiment [2]; on sPLA2-X protein) were above 5000 nM, above 1000 nM and above 200 nM, respectively.

Regarding `NC(=O)c1cc2ccc(OC(F)(F)F)cc2n1-c1cccc(N2CC(F)(F)C2)n1` [Compound 68, 1-(6-(3,3-difluoroazetidin-1-yl)pyridin-2-yl)-6-(trifluoromethoxy)-1H-indole-2-carboxamide], the IC50 in experiment [1] is above 5000 nM; in experiment [2], above 1000 nM; at sPLA2-X protein, 50 to 200 nM.

Take `CC(C)(CC(=O)O)c1cccc(-n2c(C(N)=O)cc3ccc(OC(F)(F)F)cc32)c1` [Compound 22, 3-(3-(2-carbamoyl-6-(trifluoromethoxy)-1H-indol-1-yl)phenyl)-3-methylbutanoic acid]: the IC50 in experiment [1] is 1500 to 5000 nM; in experiment [2], above 1000 nM; at sPLA2-X protein it was below 20 nM.

As to `NC(=O)c1cc2ccc(OC(F)(F)F)cc2n1-c1cccc([C@@H](N)CC(=O)O)c1` [Compound 40, (S)-3-amino-3-(3-(2-carbamoyl-6-(trifluoromethoxy)-1H-indol-1-yl)phenyl)propanoic acid], the 50% inhibitory concentration (IC50) in experiment [1] was above 5000 nM; in experiment [2], above 1000 nM; on sPLA2-X protein it was above 200 nM.

For `NC(=O)c1cc2ccc(OC(F)(F)F)cc2n1-c1cccc(C2(CC(=O)O)CC2)n1` [Compound 59, 2-(1-(6-(2-carbamoyl-6-(trifluoromethoxy)-1H-indol-1-yl)pyridin-2-yl)cyclopropyl)acetic acid], the 50% inhibitory concentration (IC50) was above 5000 nM in experiment [1], above 1000 nM in experiment [2] and below 20 nM at sPLA2-X protein.

As for `CC(C)(C)OC(=O)NC1(c2cccc(-n3c(C(N)=O)cc4ccc(OC(F)(F)F)cc43)n2)CCC1` [Compound 48, tert-butyl (1-(6-(2-carbamoyl-6-(trifluoromethoxy)-1H-indol-1-yl)pyridin-2-yl)cyclobutyl)carbamate], the concentration for half-maximal inhibition (IC50) in experiment [1] is above 5000 nM; in experiment [2] it was above 1000 nM; at sPLA2-X protein, above 200 nM.

For the compound `CC(C)(CC(=O)O)c1cccc(-n2c(C(N)=O)cc3ccc(OC(F)(F)F)cc32)n1` [Compound 62, 3-(6-(2-carbamoyl-6-(trifluoromethoxy)-1H-indol-1-yl)pyridin-2-yl)-3-methylbutanoic acid], the IC50 in experiment [1] was 1500 to 5000 nM; in experiment [2], above 1000 nM; on sPLA2-X protein, 20 to 50 nM.

On to `NC(=O)c1cc2ccc(OC(F)(F)F)cc2n1-c1cccc(CC2(C(=O)O)CC2)c1` [Compound 19, 1-(3-(2-carbamoyl-6-(trifluoromethoxy)-1H-indol-1-yl)benzyl)cyclopropane-1-carboxylic acid], for which the results for the half-inhibitory concentration (IC50) (in experiment [1]; in experiment [2]; on sPLA2-X protein) were above 5000 nM, above 1000 nM and above 200 nM, respectively.

In the case of `N[C@H](CC(=O)O)c1cccc(-n2c(C(=O)O)cc3ccc(OC(F)(F)F)cc32)c1` [Compound 43, (R)-1-(3-(1-amino-2-carboxyethyl)phenyl)-6-(trifluoromethoxy)-1H-indole-2-carboxylic acid], the concentration for half-maximal inhibition (IC50) in experiment [1] was above 5000 nM; in experiment [2], above 1000 nM; at sPLA2-X protein, above 200 nM.

As for `NC(=O)c1cc2ccc(OC(F)(F)F)cc2n1-c1cccc(C(F)(F)CO)c1` [Compound 46, 1-(3-(1,1-difluoro-2-hydroxyethyl)phenyl)-6-(trifluoromethoxy)-1H-indole-2-carboxamide], the values for the IC50 (in experiment [1]; in experiment [2]; at sPLA2-X protein) were above 5000 nM, above 1000 nM and 50 to 200 nM, respectively.

As to `NC(=O)c1cc2ccc(OC(F)(F)F)cc2n1-c1cccc(N2CC[C@@H]2C(=O)O)n1` [Compound 70, (R)-1-(6-(2-carbamoyl-6-(trifluoromethoxy)-1H-indol-1-yl)pyridin-2-yl)azetidine-2-carboxylic acid], the IC50 in experiment [1] is 500 to 1500 nM; in experiment [2], above 1000 nM; on sPLA2-X protein, below 20 nM.

Consider `NC(=O)c1cc2ccc(OC(F)(F)F)cc2n1-c1cccc(C2CC2C(=O)O)c1` (single isomer, unassigned) [Compound 15b, trans-(−)-2-(3-(2-carbamoyl-6-(trifluoromethoxy)-1H-indol-1-yl)phenyl)cyclopropane-1-carboxylic acid], for which the IC50 in experiment [1] was above 5000 nM; in experiment [2] it was above 1000 nM; at sPLA2-X protein it was 20 to 50 nM.
